The values below come from US11155550B2, “Histone deacetylase inhibitors and methods of use thereof” (Reaction Biology Corp., priority 2018, dated 2021).

Common to all, as to settings: Table 2; incubation time 10 min
The target in one test is T1, Human HDAC4 (Homo sapiens, UniProt P56524).
T1 construct: amino acids 627-1085 with a N-terminal GST tag; GST tag (N); made in house; host or cells: baculovirus expression system
Kind of test: Biochemical HDAC enzymatic assay, HDAC4. The protocol: (§1) Incubation time for HDAC1/2 is 120 min, and 10 min for other HDACs.
Human HDAC4 (GenBank Accession No. NM_006037), amino acids 627-1085 with a N-terminal GST tag, MW=75.2 kDa, was expressed in a baculovirus expression system.
(§2) • I. Compound handling: Testing compounds were dissolved in 100% DMSO to a specific concentration. The serial dilution was conducted by epMotion 5070 in DMSO. • II. HDAC reaction buffer: 50 mM Tris-HCl, pH8.0, 137 mM NaCl, 2.7 mM KCl, and 1 mM MgCl2, Added fresh: 1 mg/ml BSA, 1% DMSO. • III. […] Delivered 2× Substrate Mixture (Fluorogenic HDAC Substrate and co-factor ([…] of Nicotinamide adenine dinucleotide (NAD^+) in all Sirt assay) in all reaction wells to initiate the reaction. Spin and shake. • d. Incubated for 1-2 hr. at 30° C. with seal. • e. Added Developer with Trichostatin A (or TMP269 or NAD^+) to stop the reaction and to generate fluorescent color. • f. Fluorescence was read (excitatory, 360; emission, 460) using the EnVision Multilabel Plate Reader (Perkin Elmer) • g. Endpoint reading was taken for analysis after the development reaches plateau. • V. Data Analysis: The percentages of enzyme activity (relative to DMSO controls) and IC50 values were calculated using the GraphPad Prism 4 program based on a sigmoidal dose-response equation. […]

The target of a further test is T2, Human HDAC7 (Homo sapiens, UniProt Q8WUI4).
T2 construct: (a.a. 518-end) with an N-terminal GST tag; GST tag (N); made in house; host or cells: baculovirus expression system
T2 sequence (Q8WUI4 479-952 limits assumed): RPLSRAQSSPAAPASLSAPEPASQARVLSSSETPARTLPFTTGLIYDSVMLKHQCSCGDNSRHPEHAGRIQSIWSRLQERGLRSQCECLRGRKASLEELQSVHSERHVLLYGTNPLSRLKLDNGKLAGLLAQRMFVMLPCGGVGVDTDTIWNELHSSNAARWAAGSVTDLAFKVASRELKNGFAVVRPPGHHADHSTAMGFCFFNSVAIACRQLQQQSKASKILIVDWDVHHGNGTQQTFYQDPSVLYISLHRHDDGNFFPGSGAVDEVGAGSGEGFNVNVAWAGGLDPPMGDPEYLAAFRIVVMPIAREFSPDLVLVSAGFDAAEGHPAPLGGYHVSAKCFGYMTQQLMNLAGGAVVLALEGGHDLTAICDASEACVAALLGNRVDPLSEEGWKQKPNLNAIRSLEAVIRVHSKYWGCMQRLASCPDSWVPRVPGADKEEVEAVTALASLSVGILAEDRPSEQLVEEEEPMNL
Kind of test: Biochemical HDAC enzymatic assay, HDAC7. The protocol: as §1
Human HDAC7 (GenBank Accession No. AY302468), (a.a. 518-end) with an N-terminal GST tag, MW=78 kDa, was expressed in a baculovirus expression system.
as §2

The target in a further test is T3, Human HDAC9 (Homo sapiens, UniProt Q9UKV0).
T3 construct: amino acids 604-1066 with a C-terminal His tag; His tag (C); made in house; host or cells: baculovirus expression system
T3 sequence (Q9UKV0 604-1066 isoform Q9UKV0-5): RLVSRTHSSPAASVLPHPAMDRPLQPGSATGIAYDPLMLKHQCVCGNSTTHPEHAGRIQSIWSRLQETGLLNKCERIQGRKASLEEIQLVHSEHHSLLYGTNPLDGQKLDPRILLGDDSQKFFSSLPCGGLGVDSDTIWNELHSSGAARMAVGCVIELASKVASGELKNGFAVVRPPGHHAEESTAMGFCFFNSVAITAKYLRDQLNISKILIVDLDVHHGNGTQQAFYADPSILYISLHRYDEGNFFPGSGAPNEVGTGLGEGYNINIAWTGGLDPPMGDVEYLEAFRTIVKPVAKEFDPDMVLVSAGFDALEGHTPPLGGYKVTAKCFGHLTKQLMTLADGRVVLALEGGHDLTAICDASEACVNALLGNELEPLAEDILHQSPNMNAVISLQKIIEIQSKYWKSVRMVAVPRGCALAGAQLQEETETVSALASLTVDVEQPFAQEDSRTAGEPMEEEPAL
Kind of test: Biochemical HDAC enzymatic assay, HDAC9. How it is done: as §1
Human HDAC9 (GenBank Accession No. NM_178423), amino acids 604-1066 with a C-terminal His tag, MW=50.7 kDa, was expressed in a baculovirus expression system.
as §2

In the next test the target is T4, Human HDAC11 (Homo sapiens, UniProt Q96DB2).
T4 construct: Human HDAC11 (full length); GST tag (N); made in house; host or cells: baculovirus expression system
T4 sequence (Q96DB2 1-347): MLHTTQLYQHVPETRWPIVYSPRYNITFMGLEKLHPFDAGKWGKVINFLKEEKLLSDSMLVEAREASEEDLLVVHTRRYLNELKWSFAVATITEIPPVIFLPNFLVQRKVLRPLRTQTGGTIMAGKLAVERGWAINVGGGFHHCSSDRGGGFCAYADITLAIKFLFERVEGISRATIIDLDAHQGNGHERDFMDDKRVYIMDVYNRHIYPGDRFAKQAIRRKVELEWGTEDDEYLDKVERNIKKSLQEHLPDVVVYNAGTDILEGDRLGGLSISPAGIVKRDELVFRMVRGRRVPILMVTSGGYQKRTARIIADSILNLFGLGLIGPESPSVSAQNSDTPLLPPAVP
The experiment in a line: Biochemical HDAC enzymatic assay, HDAC11. How it is done: as §1
Human HDAC11 (full length) (GenBank Accession No. NM_024827) with a N-terminal GST tag, MW=66 kDa, was expressed in a baculovirus expression system.
as §2

T1 sequence (P56524 627-1084 limits assumed): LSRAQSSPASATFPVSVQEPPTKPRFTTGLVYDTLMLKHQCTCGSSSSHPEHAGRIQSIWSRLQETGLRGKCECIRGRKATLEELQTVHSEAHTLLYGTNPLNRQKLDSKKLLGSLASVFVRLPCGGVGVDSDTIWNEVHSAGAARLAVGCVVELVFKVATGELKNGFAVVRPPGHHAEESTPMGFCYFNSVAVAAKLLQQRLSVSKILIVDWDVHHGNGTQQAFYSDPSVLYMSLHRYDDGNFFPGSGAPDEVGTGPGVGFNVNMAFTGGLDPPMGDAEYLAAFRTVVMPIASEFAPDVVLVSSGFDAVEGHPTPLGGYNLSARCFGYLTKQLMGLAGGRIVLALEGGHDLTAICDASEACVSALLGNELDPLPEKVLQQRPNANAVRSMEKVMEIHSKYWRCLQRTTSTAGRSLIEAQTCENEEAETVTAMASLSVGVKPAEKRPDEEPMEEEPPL

The term IC50 denotes the concentration at which inhibition is half-maximal. A high value points to weaker potency in that assay. In the case of `O=C(NO)c1ccc(CN2C(=O)c3ccccc3C23CCN(C2CC2)CC3)cc1` [Compound Example 12, 4-((1′-cyclopropyl-3-oxospiro[isoindoline-1,4′-piperidin]-2-yl)methyl)-N-hydroxybenzamide], the IC50 on Human HDAC4 was > 10 µM; at Human HDAC7, 3.1 µM; against Human HDAC9 it was 6.9 µM; on Human HDAC11, 3.6 µM.

`CN(C)C(=O)N1CCC2(CC1)c1ccccc1C(=O)N2Cc1ccc(C(=O)NO)cc1` [Compound Example 11, 2-(4-(hydroxycarbamoyl)benzyl)-N,N-dimethyl-3-oxospiro[isoindoline-1,4′-piperidine]-1′-carboxamide]: the IC50 against Human HDAC4 came out at 5 µM; against Human HDAC7, 0.85 µM; against Human HDAC9 it was 3.2 µM; against Human HDAC11, 4.1 µM.
